# Columns and labels:
# [1] = tested on: recombinant human Bcl-2-G101V protein; assay: Bcl-2-G101V TR-FRET Assay; assay type: binding; conditions: ratio of biochemical IC50 Bcl-2 G101V / Bcl-2 WT
# Procedure, shortened: (§1)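 Percent inhibition of the Bcl-2-G101V–ligand interaction was computed from the 490 nm to 520 nm emission ratio after 337 nm excitation, over increasing compound concentrations; a four-parameter logistic fit gave IC50.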
# [2] = molecular target: recombinant human Bcl-2-G101V protein (Homo sapiens (Human), UniProt P10415, G101V); assay: Bcl-2-G101V TR-FRET Assay; assay type: binding; conditions: Bcl-2 G101V mutant, TR-FRET; read-out: Biochemical assay (IC50, nM) Bcl-2 G101V
# Procedure, shortened: as §1
# [3] = tested on: BCL-2 G101V knock-in cell line H96 (derive from RS4;11); assay: Bcl 2-G101V Knock-In RS4;11 Cell Proliferation Assay; assay type: cell-based; conditions: Homo sapiens, RS4;11 Bcl-2 G101V knock-in clone H96, 48 hrs, CellTiter-GLO, read-out: Cellular proliferation assay (IC50, nM) RS4
# Procedure, shortened: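 CellTiter-Glo luminescence after 48 h, 37 °C compound treatment (10 concentrations, maximum 1 μM or 10 μM) gave mean IC50 values. Cells were 50,000 per well of H96, a BCL2-G101V knock-in single clone derived from RS4;11 by Cas9 editing.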
# [4] = molecular target: Recombinant human Bcl-2 protein (Homo sapiens (Human), UniProt P10415); assay: Bcl-2 TR-FRET Assay; assay type: binding; conditions: Bcl-2 wild type, TR-FRET; read-out: Biochemical assay (IC50, nM) Bcl-2 WT
# Procedure, shortened: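 TR-FRET read (337 nm excitation, 520/490 nm emission) after 1 h with 0.5 nM FITC-labeled Bak peptide and Tb-cryptate anti-6His antibody. Bcl-2 at 0.05 nM had been pre-incubated 0.5 h with compound. IC50 fitted by four-parameter logistic equation.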
# [5] = tested on: RS4;11 (BCL-2 dependent acute lymphoblastic leukemia cell line); assay: RS4;11 Cell Proliferation Assay; assay type: cell-based; conditions: Homo sapiens, RS4-11, RS4;11 cells, read-out: Cellular proliferation assay (IC50, nM) RS4
# Procedure, shortened: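 Viability measured via CellTiter-Glo luminescence after a 48 h, 37 °C exposure to compounds (10 points, highest 1 μM). Seeding was 50,000 RS4;11 cells per well in 10% FBS RPMI-1640; IC50 given as mean.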
Structure (SMILES),Ratio of Bcl-2 G101V/WT [1],IC50 [2] [nM],IC50 [3] [nM],IC50 [4] [nM],IC50 [5] [nM]
"CC(C)c1ccccc1C1CN(Cc2cccc(OC3CC3)c2)CCN1C1CC2(CCN(c3ccc(C(=O)NS(=O)(=O)c4ccc(NC[C@H]5CC[C@](C)(O)CC5)c([N+](=O)[O-])c4)c(Oc4cnc5[nH]ccc5c4)c3)CC2)C1 (some centres unmarked) [Example 178, 2-((1H-pyrrolo[2,3-b]pyridin-5-yl)oxy)-4-(2-(4-(3-cyclopropoxybenzyl)-2-(2-isopropylphenyl)piperazin-1-yl)-7-azaspiro[3.5]nonan-7-yl)-N-((4-((((1r,4r)-4-hydroxy-4-methylcyclohexyl)methyl)amino)-3-nitrophenyl)sulfonyl)benzamide]",2.9,1.5,4.87,0.52,0.64
"COc1ccc(CN2CCN(C3CC4(C3)CN(c3ccc(C(=O)NS(=O)(=O)c5ccc(NCC6CCOCC6)c([N+](=O)[O-])c5)c(Oc5cnc6[nH]cc(F)c6c5)c3)C4)[C@H](c3ccccc3C(C)C)C2)cc1 [Example 183, (R)-2-((3-fluoro-1H-pyrrolo[2,3-b]pyridin-5-yl)oxy)-4-(6-(2-(2-isopropylphenyl)-4-(4-methoxybenzyl)piperazin-1-yl)-2-azaspiro[3.3]heptan-2-yl)-N-((3-nitro-4-(((tetrahydro-2H-pyran-4-yl)methyl)amino)phenyl)sulfonyl) benzamide]",1.8,0.18,0.52,0.096,0.1
"COc1ccc(CN2CCN(C3CC4(CCN(c5ccc(C(=O)NS(=O)(=O)c6ccc(NC[C@H]7CC[C@](C)(O)CC7)c([N+](=O)[O-])c6)c(Oc6cnc7[nH]ccc7c6)c5)CC4)C3)C(c3ccccc3C(C)C)C2)cc1OC1CC1 (some centres unmarked) [Example 186, 2-((1H-pyrrolo[2,3-b]pyridin-5-yl)oxy)-4-(2-(4-(3-cyclopropoxy-4-methoxybenzyl)-2-(2-isopropylphenyl)piperazin-1-yl)-7-azaspiro[3.5]nonan-7-yl)-N-((4-((((1r,4r)-4-hydroxy-4-methylcyclohexyl)methyl)amino)-3-nitrophenyl)sulfonyl)benzamide]",4.2,0.64,2.5,0.15,0.53
"COc1ccc(CN2CCN(C3CC4(CCN(c5ccc(C(=O)NS(=O)(=O)c6ccc(NCC7CCOCC7)c([N+](=O)[O-])c6)c(Oc6cnc7[nH]cc(F)c7c6)c5)CC4)C3)[C@H](c3ccccc3C(C)C)C2)cc1OC [Example 191, (R)-4-(2-(4-(3,4-dimethoxybenzyl)-2-(2-isopropylphenyl)piperazin-1-yl)-7-azaspiro[3.5]nonan-7-yl)-2-((3-fluoro-1H-pyrolo[2,3-b]pyridin-5-yl)oxy)-N-((3-nitro-4-(((tetrahydro-2H-pyran-4-yl)methyl)amino)phenyl)sulfonyl) benzamide]",3.3,0.2,0.52,0.061,0.15
[2H]C([2H])(c1ccc(OC)c(OC)c1)N1CCN(C2CC3(CCN(c4ccc(C(=O)NS(=O)(=O)c5ccc(NC[C@H]6CC[C@](C)(O)CC6)c([N+](=O)[O-])c5)c(Oc5cnc6[nH]ccc6c5)c4)CC3)C2)C(c2ccccc2C(C)C)C1 (some centres unmarked) [Example 193],3.4,0.23,0.8,0.068,0.26
"CC(C)c1ccccc1C1CN(Cc2cccc3c2N(C)CCO3)CCN1C1CC2(CCN(c3ccc(C(=O)NS(=O)(=O)c4ccc(NC[C@H]5CC[C@](C)(O)CC5)c([N+](=O)[O-])c4)c(Oc4cnc5[nH]ccc5c4)c3)CC2)C1 (some centres unmarked) [Example 200, 2-((1H-pyrrolo[2,3-b]pyridin-5-yl)oxy)-N-((4-((((1r,4r)-4-hydroxy-4-methylcyclohexyl)methyl)amino)-3-nitrophenyl)sulfonyl)-4-(2-(2-(2-isopropylphenyl)-4-((4-methyl-3,4-dihydro-2H-benzo[b][1,4]oxazin-5-yl)methyl)piperazin-1-yl)-7-azaspiro[3.5]nonan-7-yl) benzamide]",4.2,1.02,1.6,0.24,0.27
"CC(C)c1ccccc1C1CN(Cc2cccc3c2OC(C)(C)O3)CCN1C1CC2(CCN(c3ccc(C(=O)NS(=O)(=O)c4ccc(NC[C@H]5CC[C@](C)(O)CC5)c([N+](=O)[O-])c4)c(Oc4cnc5[nH]ccc5c4)c3)CC2)C1 (some centres unmarked) [Example 201, 2-((1H-pyrrolo[2,3-b]pyridin-5-yl)oxy)-4-(2-(4-((2,2-dimethylbenzo [d][1,3]dioxol-4-yl)methyl)-2-(2-isopropylphenyl)piperazin-1-yl)-7-azaspiro[3.5]nonan-7-yl)-N-((4-((((1r,4r)-4-hydroxy-4-methylcyclohexyl)methyl)amino)-3-nitrophenyl)sulfonyl)benzamide]",3.9,1.1,6.2,0.28,0.74
"COc1ccc(CN2CCN(C3CC4(CCN(c5ccc(C(=O)NS(=O)(=O)c6ccc(NC[C@H]7CC[C@](C)(O)CC7)c([N+](=O)[O-])c6)c(Oc6cnc7[nH]ccc7c6)c5)CC4)C3)C(c3ccccc3C(C)C)C2)cc1C(C)=O (some centres unmarked) [Example 212, 2-((1H-pyrrolo[2,3-b]pyridin-5-yl)oxy)-4-(2-(4-(3-acetyl-4-methoxybenzyl)-2-(2-isopropylphenyl)piperazin-1-yl)-7-azaspiro[3.5]nonan-7-yl)-N-((4-((((1r,4r)-4-hydroxy-4-methylcyclohexyl)methyl)amino)-3-nitrophenyl)sulfonyl)benzamide]",4.2,0.54,2.15,0.13,0.3
"CC(C)c1ccccc1C1CN(Cc2cccc3occc23)CCN1C1CC2(CCN(c3ccc(C(=O)NS(=O)(=O)c4ccc(NC[C@H]5CC[C@](C)(O)CC5)c([N+](=O)[O-])c4)c(Oc4cnc5[nH]ccc5c4)c3)CC2)C1 (some centres unmarked) [Example 213, 2-((1H-pyrrolo[2,3-b]pyridin-5-yl)oxy)-4-(2-(4-(benzofuran-4-ylmethyl)-2-(2-isopropylphenyl)piperazin-1-yl)-7-azaspiro[3.5]nonan-7-yl)-N-((4-((((1r,4r)-4-hydroxy-4-methylcyclohexyl)methyl)amino)-3-nitrophenyl)sulfonyl)benzamide]",3.7,2.6,5.2,0.7,0.32
"CC(C)c1ccccc1C1CN(Cc2cccc3c2N(C)C(=O)CO3)CCN1C1CC2(CCN(c3ccc(C(=O)NS(=O)(=O)c4ccc(NC[C@H]5CC[C@](C)(O)CC5)c([N+](=O)[O-])c4)c(Oc4cnc5[nH]ccc5c4)c3)CC2)C1 (some centres unmarked) [Example 216, 2-((1H-pyrrolo[2,3-b]pyridin-5-yl)oxy)-N-((4-((((1r,4r)-4-hydroxy-4-methylcyclohexyl)methyl)amino)-3-nitrophenyl)sulfonyl)-4-(2-(2-(2-isopropylphenyl)-4-((4-methyl-3-oxo-3,4-dihydro-2H-benzo[b] [1,4]oxazin-5-yl)methyl)piperazin-1-yl)-7-azaspiro[3.5]nonan-7-yl) benzamide]",4.2,0.81,2.76,0.19,0.33
COc1ccc(CN2CCN(C3CC4(CCN(c5ccc(C(=O)NS(=O)(=O)c6cc7c(c([N+](=O)[O-])c6)N[C@H](C[C@H]6CC[C@H](O)CC6)CO7)c(Oc6cnc7[nH]ccc7c6)c5)CC4)C3)[C@H](c3ccccc3C(C)C)C2)cc1 [Example 221],3.4,0.27,0.92,0.08,0.16
"COc1cc(CN2CCN(C3CC4(C3)CN(c3ccc(C(=O)NS(=O)(=O)c5ccc(NC[C@H]6CC[C@](C)(O)CC6)c([N+](=O)[O-])c5)c(Oc5cnc6[nH]ccc6c5)c3)C4)[C@H](c3ccccc3C(C)C)C2)cc(C)c1OC [Example 234, 2-((1H-pyrrolo[2,3-b]pyridin-5-yl)oxy)-4-(6-((R)-4-(3,4-dimethoxy-5-methylbenzyl)-2-(2-isopropylphenyl)piperazin-1-yl)-2-azaspiro[3.3]heptan-2-yl)-N-((4-((((1r,4r)-4-hydroxy-4-methylcyclohexyl)methyl)amino)-3-nitrophenyl)sulfonyl)benzamide]",3.7,0.32,0.35,0.087,0.09
COc1ccc(CN2CCN(C3CC4(CCN(c5ccc(C(=O)NS(=O)(=O)c6ccc(NC[C@H]7CC[C@](C)(O)CC7)c([N+](=O)[O-])c6)c(Oc6cnc7[nH]ccc7c6)c5)CC4)C3)C(c3cc(F)ccc3C(C)C)C2)cc1 (some centres unmarked) [Example 235],3.8,1.1,1.21,0.28,0.27

# — patent publication US20240376097A1, “BCL-2 Inhibitor” (BeiGene Ltd., priority 2020, published 2024)
